# Reference: PubChem BioAssay (NCI)
# Several values for one entry are separate records, joined by “and”; a condition that tells them apart may be missing. Equal entries are not always repeated.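 These data come from cells grown in 96-well plates and exposed to compound for 48 hours at five concentrations. Abbreviation: GI50, concentration required for 50% inhibition of growth. Definition used: TGI = concentration required for complete inhibition of growth.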
# Key:
# Assay in all cases: inhibition of tumour cell growth, NCI panel, 48 h
# OVCAR-4 ovarian = tested on: OVCAR-4 ovarian
# NCI-H226 lung = tested on: NCI-H226 lung
# SK-MEL-2 melanoma = tested on: SK-MEL-2 melanoma
# OVCAR-8 ovarian = tested on: OVCAR-8 ovarian
# IGROV1 ovarian = tested on: IGROV1 ovarian
# HCT-15 colon = tested on: HCT-15 colon
# SN12C renal = tested on: SN12C renal
# HCT-116 colon = tested on: HCT-116 colon
# HS 578T breast = tested on: HS 578T breast
# RXF 393 renal = tested on: RXF 393 renal
# UO-31 renal = tested on: UO-31 renal
# HT29 colon = tested on: HT29 colon
# SF-268 CNS = tested on: SF-268 CNS
# A549 NSCLC = tested on: A549 NSCLC
# MDA-MB-435 = tested on: MDA-MB-435
# SK-OV-3 ovarian = tested on: SK-OV-3 ovarian
# SF-295 CNS = tested on: SF-295 CNS
# LOX IMVI melanoma = tested on: LOX IMVI melanoma
# MALME-3M melanoma = tested on: MALME-3M melanoma
# MOLT-4 leukemia = tested on: MOLT-4 leukemia
# T-47D breast = tested on: T-47D breast
# CAKI-1 renal = tested on: CAKI-1 renal
# BT-549 breast = tested on: BT-549 breast
# SNB-19 CNS = tested on: SNB-19 CNS
# OVCAR-5 ovarian = tested on: OVCAR-5 ovarian
# MCF7 breast = tested on: MCF7 breast
# SK-MEL-5 melanoma = tested on: SK-MEL-5 melanoma
# COLO 205 colon = tested on: COLO 205 colon
# KM12 colon = tested on: KM12 colon
# SNB-75 CNS = tested on: SNB-75 CNS
# SW-620 colon = tested on: SW-620 colon
# EKVX NSCLC = tested on: EKVX NSCLC
# ACHN renal = tested on: ACHN renal
# NCI-H460 lung = tested on: NCI-H460 lung
# NCI-H23 lung = tested on: NCI-H23 lung
# NCI-H522 lung = tested on: NCI-H522 lung
# OVCAR-3 ovarian = tested on: OVCAR-3 ovarian
# NCI/ADR-RES ovarian = tested on: NCI/ADR-RES ovarian
# SK-MEL-28 melanoma = tested on: SK-MEL-28 melanoma
# U251 CNS = tested on: U251 CNS
# M14 melanoma = tested on: M14 melanoma
# UACC-257 melanoma = tested on: UACC-257 melanoma
# DU-145 prostate = tested on: DU-145 prostate
# RPMI-8226 leukemia = tested on: RPMI-8226 leukemia
# SF-539 CNS = tested on: SF-539 CNS
# UACC-62 melanoma = tested on: UACC-62 melanoma
# PC-3 prostate = tested on: PC-3 prostate
# HOP-92 NSCLC = tested on: HOP-92 NSCLC
# TK-10 renal = tested on: TK-10 renal
# MDA-N = tested on: MDA-N
# HOP-62 NSCLC = tested on: HOP-62 NSCLC
# K-562 leukemia = tested on: K-562 leukemia
# A498 renal = tested on: A498 renal
# HCC-2998 colon = tested on: HCC-2998 colon
# HL-60(TB) leukemia = tested on: HL-60(TB) leukemia
# SR leukemia = tested on: SR leukemia
# MDA-MB-231 breast = tested on: MDA-MB-231 breast
# 786-0 renal = tested on: 786-0 renal
structure (smiles),measurement,setting,value
Cc1c(O)c2c(c(O)c1Br)C(=O)C=CC2=O,GI50,OVCAR-4 ovarian,1030 nM
same,TGI,OVCAR-4 ovarian,2230 nM
same,GI50,NCI-H226 lung,5440 nM
same,TGI,NCI-H226 lung,5770 nM and 18700 nM
same,GI50,SK-MEL-2 melanoma,1930 nM
same,TGI,SK-MEL-2 melanoma,4450 nM
same,TGI,OVCAR-8 ovarian,2740 nM
same,TGI,IGROV1 ovarian,3050 nM and 3560 nM
same,GI50,HCT-15 colon,451 nM
same,TGI,HCT-15 colon,1140 nM and 1940 nM
same,TGI,SN12C renal,2730 nM
same,GI50,HCT-116 colon,1010 nM
same,TGI,HCT-116 colon,817 nM and 2160 nM
same,TGI,HS 578T breast,6340 nM
same,GI50,RXF 393 renal,229 nM
same,TGI,RXF 393 renal,2720 nM and 582 nM
same,GI50,UO-31 renal,1380 nM
same,TGI,UO-31 renal,1230 nM and 2950 nM
same,GI50,HT29 colon,602 nM
same,TGI,HT29 colon,1100 nM and 2800 nM
same,TGI,SF-268 CNS,4630 nM and 6510 nM
same,GI50,A549 NSCLC,4140 nM
same,TGI,A549 NSCLC,4470 nM and 29400 nM
same,TGI,MDA-MB-435,451 nM
same,GI50,SK-OV-3 ovarian,14100 nM
same,TGI,SK-OV-3 ovarian,3930 nM and 27100 nM
same,GI50,SF-295 CNS,14000 nM
same,TGI,SF-295 CNS,3150 nM and 28200 nM
same,GI50,LOX IMVI melanoma,215 nM
same,TGI,LOX IMVI melanoma,1540 nM and 703 nM
same,GI50,MALME-3M melanoma,552 nM
same,TGI,MALME-3M melanoma,776 nM and 1810 nM
same,TGI,MOLT-4 leukemia,101 nM
same,TGI,T-47D breast,2010 nM
same,GI50,CAKI-1 renal,160 nM
same,TGI,CAKI-1 renal,894 nM and 382 nM
same,TGI,BT-549 breast,1300 nM
same,TGI,SNB-19 CNS,3740 nM
same,GI50,OVCAR-5 ovarian,1950 nM
same,TGI,OVCAR-5 ovarian,3190 nM and 3920 nM
same,GI50,MCF7 breast,410 nM
same,TGI,MCF7 breast,399 nM and 1540 nM
same,TGI,SK-MEL-5 melanoma,974 nM and 1780 nM
same,GI50,COLO 205 colon,334 nM
same,TGI,COLO 205 colon,428 nM and 1450 nM
same,GI50,KM12 colon,3550 nM
same,TGI,KM12 colon,3140 nM and 13300 nM
same,GI50,SNB-75 CNS,2100 nM
same,TGI,SNB-75 CNS,2850 nM and 5070 nM
same,GI50,SW-620 colon,449 nM
same,TGI,SW-620 colon,364 nM and 2270 nM
same,TGI,EKVX NSCLC,5210 nM
same,GI50,ACHN renal,489 nM
same,TGI,ACHN renal,2200 nM and 1830 nM
same,TGI,NCI-H460 lung,2740 nM
same,GI50,NCI-H23 lung,1480 nM
same,TGI,NCI-H23 lung,2090 nM and 3280 nM
same,GI50,NCI-H522 lung,179 nM
same,TGI,NCI-H522 lung,337 nM and 365 nM
same,GI50,OVCAR-3 ovarian,241 nM
same,TGI,OVCAR-3 ovarian,1900 nM and 788 nM
same,GI50,NCI/ADR-RES ovarian,2400 nM
same,TGI,NCI/ADR-RES ovarian,1660 nM and 7100 nM
same,GI50,SK-MEL-28 melanoma,1590 nM
same,TGI,SK-MEL-28 melanoma,2330 nM and 3070 nM
same,TGI,U251 CNS,3090 nM and 3990 nM
same,GI50,M14 melanoma,1010 nM
same,TGI,M14 melanoma,1110 nM and 2280 nM
same,GI50,UACC-257 melanoma,924 nM
same,TGI,UACC-257 melanoma,2520 nM and 2220 nM
same,GI50,DU-145 prostate,1820 nM
same,TGI,DU-145 prostate,2850 nM and 3240 nM
same,GI50,RPMI-8226 leukemia,138 nM
same,TGI,RPMI-8226 leukemia,1010 nM and 436 nM
same,GI50,SF-539 CNS,1680 nM
same,TGI,SF-539 CNS,1660 nM and 3100 nM
same,GI50,UACC-62 melanoma,1440 nM
same,TGI,UACC-62 melanoma,2100 nM and 3210 nM
same,GI50,PC-3 prostate,1900 nM
same,TGI,PC-3 prostate,3190 nM and 5150 nM
same,GI50,HOP-92 NSCLC,270 nM
same,TGI,HOP-92 NSCLC,1480 nM and 887 nM
same,GI50,TK-10 renal,343 nM
same,TGI,TK-10 renal,2550 nM and 1150 nM
same,GI50,MDA-N,630 nM
same,TGI,MDA-N,615 nM and 2080 nM
same,GI50,HOP-62 NSCLC,2480 nM
same,TGI,HOP-62 NSCLC,2360 nM and 5350 nM
same,GI50,K-562 leukemia,59.9 nM
same,TGI,K-562 leukemia,660 nM and 334 nM
same,TGI,A498 renal,3180 nM and 3870 nM
same,TGI,HCC-2998 colon,3310 nM and 3820 nM
same,TGI,HL-60(TB) leukemia,113 nM and 16 nM
same,TGI,SR leukemia,730 nM
same,GI50,MDA-MB-231 breast,1580 nM
same,TGI,MDA-MB-231 breast,3010 nM and 3480 nM
same,GI50,786-0 renal,1460 nM
same,TGI,786-0 renal,428 nM and 3020 nM
